Assay results taken from patent publication US10266544B2, “Aryl substituted aminomethyl spectinomycin analogs as antibacterial agents” (ST. JUDE CHILDREN'S RESEARCH HOSPITAL, INC., priority 2013, dated 2019).
Where a name gives a salt, the structure may show the parent alone. Read-outs that look alike come from different tables or passages of the source.

Key:
[1] = tested on: S. pneumoniae; experiment: Resistance frequency determination and cross resistance of spontaneous mutants; assay type: cell-based, Streptococcus pneumoniae; settings: cross resistance testing of 2 mutants
[2] = tested on: Bacillus anthracis, Sterne 34F2; experiment: microbe, parasite or virus in culture; assay type: cell-based; settings: STERNE34F2, read-out: MIC B.a.
[3] = tested on: Bacillus subtilis (ATCC 23857); experiment: MIC determination, microbroth dilution; assay type: cell-based; settings: ATCC23857; Bacillus subtilis (ATCC 23857); read-out: MIC B.s.
[4] = tested on: Enterococcus faecalis (ATCC 33186); experiment: MIC determination, microbroth dilution; assay type: cell-based
[5] = tested on: Staphylococcus aureus (ATCC 29213); experiment: MIC determination, microbroth dilution; assay type: cell-based; settings: ATCC29213; Staphylococcus aureus (ATCC 29213); read-out: MIC S.a.
[6] = tested on: MRSA, Staphylococcus aureus (NRS70); experiment: MIC determination, microbroth dilution; assay type: cell-based; settings: read-out: MIC MRSA
[7] = tested on: Streptococcus pneumoniae (R6); experiment: MIC determination, microbroth dilution; assay type: cell-based
[8] = tested on: Streptococcus pyogenes (ATCC 700294); experiment: MIC determination, microbroth dilution; assay type: cell-based; settings: ATCC700294; Streptococcus pyogenes (ATCC 700294); read-out: MIC S. py.
[9] = tested on: acinetobacter baumannii (ATCC 19606); experiment: MIC determination, microbroth dilution; assay type: cell-based; settings: ATCC19606
[10] = tested on: Burkholderia cepacia (ATCC 25416); experiment: MIC determination, microbroth dilution; assay type: cell-based; settings: Burkholderia cepacia
[11] = tested on: Escherichia coli (ATCC 700926); experiment: MIC determination, microbroth dilution; assay type: cell-based; settings: ATCC700926; Escherichia coli (ATCC 700926); read-out: MIC E.c.
[12] = tested on: E. coli K12 ΔtolC; experiment: microbe, parasite or virus in culture; assay type: cell-based; settings: Escherichia coli, read-out: MIC E.c. Δtolc
[13] = tested on: Klebsiella pneumoniae (ATCC 33495); experiment: MIC determination, microbroth dilution; assay type: cell-based; settings: ATCC33495
[14] = tested on: Pseudomonas aeruginosa (PA01); experiment: MIC determination, microbroth dilution; assay type: cell-based
[15] = tested on: Proteus mirabilis (ATCC 25933); experiment: MIC determination, microbroth dilution; assay type: cell-based; settings: ATCC25933
[16] = tested on: Proteus vulgaris (ATCC 33420); experiment: MIC determination, microbroth dilution; assay type: cell-based; settings: ATCC33420
[17] = tested on: Stenotrophomonas maltophilia (ATCC 13637); experiment: MIC determination, microbroth dilution; assay type: cell-based; settings: ATCC13637; Stenotrophomonas maltophilia (ATCC 13637); read-out: MIC S.m.
[18] = tested on: Haemophilus influenza (ATCC 49247); experiment: microbe, parasite or virus in culture; assay type: cell-based; settings: ATCC49247; Haemophilus influenza; 4 μg per disc; range of at least two experiments; read-out: Zone of inhibition H.i.
[19] = tested on: Legionella pneumophila (ATCC 33153); experiment: microbe, parasite or virus in culture; assay type: cell-based; settings: ATCC33153, 72 h, read-out: Zone of inhibition L.p.
[20] = tested on: Neisseria meningitides (ATCC 13077); experiment: Disc diffusion assay; assay type: cell-based; settings: ATCC13077, 4 μg per disc, read-out: Zone of inhibition N.m.
[21] = tested on: Neisseria gonorrhoeae (ATCC 49226); experiment: Disc diffusion assay; assay type: cell-based; settings: ATCC49226, 4 μg per disc, read-out: Zone of inhibition N.g.
[22] = tested on: Neisseria gonorrhoeae (ATCC 49226); experiment: Agar MIC determination (Alamar Blue); assay type: cell-based; settings: ATCC49226, agar MIC, read-out: MIC N.g.
[23] = tested on: Bacillus anthracis; experiment: microbe, parasite or virus in culture; assay type: cell-based; settings: read-out: MIC B.a.
[24] = tested on: Yersinia pestis; experiment: microbe, parasite or virus in culture; assay type: cell-based; settings: read-out: MIC Y.p.
[25] = tested on: live vaccine strain (LVS) of Francisella tularensis; experiment: microbe, parasite or virus in culture; assay type: cell-based; settings: Francisella tularensis, read-out: MIC F.t.
[26] = tested on: Streptococcus pneumoniae clinical isolates representing several serotypes; experiment: MIC determination, Streptococcus pneumoniae panel of clinical isolates (Table 7); assay type: cell-based; settings: Streptococcus pneumoniae
[27] = tested on: M. tuberculosis clinical isolates; experiment: microbe, parasite or virus in culture; assay type: cell-based; settings: Mycobacterium tuberculosis, H37RV, read-out: MIC H37Rv
[28] = tested on: Listeria monocytogenes; experiment: MIC determination (Table 6); assay type: cell-based
[29] = tested on: Moraxella catarrhalis; experiment: MIC determination (Table 6); assay type: cell-based
[30] = ATCC33186, Enterococcus faecalis (ATCC 33186), read-out: MIC E.f.
[31] = Streptococcus pneumoniae (R6), read-out: MIC S. pn.
[32] = Streptococcus pneumoniae, S. pneumoniae R6, Drug Susceptible, read-out: MIC R6
[33] = ATCC25416, read-out: MIC B.c., Burkholderia cepacia (ATCC 25416)
[34] = ATCC25416, read-out: MIC B.c., Burkholderia cepacia, Table 6
[35] = BAA1407, S. pneumoniae BAA-1407, Macrolide Resistant, read-out: MIC BAA-1407
[36] = S. pneumoniae A66.1x, Drug Susceptible, read-out: MIC A66.1x
[37] = S. pneumoniae BHN97x, Drug Susceptible, read-out: MIC BHN97x
[38] = S. pneumoniae D39X, Drug Susceptible, read-out: MIC D39X
[39] = S. pneumoniae Daw7, PenG Resistant, read-out: MIC Daw7
[40] = S. pneumoniae Daw8, PenG Resistant, read-out: MIC Daw8
[41] = S. pneumoniae Daw9, PenG Resistant, read-out: MIC Daw9
[42] = S. pneumoniae Daw62, PenG Resistant, read-out: MIC Daw62
[43] = S. pneumoniae Daw64, PenG Resistant, read-out: MIC Daw64
[44] = S. pneumoniae OVA6, Macrolide Resistant, read-out: MIC OVA6
[45] = S. pneumoniae T4X, Drug Susceptible, read-out: MIC T4X

## CC1(C)S[C@@H]2[C@H](NC(=O)[C@H](N)c3ccccc3)C(=O)N2[C@H]1C(=O)O [ampicillin]
[1]
  susceptibility of mutants resistant to 2: susceptible

## CCOc1ccc(CNC[C@]2(O)C[C@@H](C)O[C@H]3O[C@@H]4[C@@H](O)[C@H](NC)[C@H](O)[C@H](NC)[C@H]4O[C@]32O)cc1 [compound 4, 3′-(R)-3′-[(4-ethoxyl)benzylaminomethyl)]dihydrospectinomycin Trihydrochloride]
[2]
  MIC: 100 µg/mL
[3]
  MIC: 12.5 to 25 µg/mL
[4]; [30]
  MIC: 12.5 to 25 µg/mL
[5]
  MIC: 25 to 50 µg/mL
[6]; Staphylococcus aureus (NRS70)
  MIC: 50 µg/mL
[7]; [31]
  MIC: 1.6 to 3.1 µg/mL
[7]; [32]
  MIC: 1.6 µg/mL
[8]
  MIC: 1.6 to 3.1 µg/mL
[9]
  MIC: ≥ 200 µg/mL
[10]; [33]
  MIC: > 200 µg/mL
[10]; [34]
  MIC: > 200 µg/mL
[11]
  MIC: 25 to 50 µg/mL
[12]
  MIC: 6.3 µg/mL
[13]
  MIC: 100 to 200 µg/mL
[14]
  MIC: 100 to 200 µg/mL
[15]
  MIC: > 200 µg/mL
[16]
  MIC: > 200 µg/mL
[17]
  MIC: 25 to 50 µg/mL
[18]
  zone of inhibition at 4 µg/disc: 15 to 18 mm
[19]
  zone of inhibition at 4 µg/disc: 18 to 33 mm
[20]
  zone of inhibition at 4 µg/disc: 16 to 18 mm
[21]
  zone of inhibition at 4 µg/disc: 15 to 17 mm
[22]
  MIC: 12.5 µg/mL
[23]
  MIC: 100 µg/mL
[24]
  MIC: > 200 µg/mL
[25]
  MIC: 0.8 to 3.1 µg/mL
[26]; [35]
  MIC: 6.3 µg/mL
[26]; [36]
  MIC: 0.8 µg/mL
[26]; [37]
  MIC: 1.6 µg/mL
[26]; [38]
  MIC: 0.8 µg/mL
[26]; [39]
  MIC: 3.1 µg/mL
[26]; [40]
  MIC: 1.6 µg/mL
[26]; [41]
  MIC: 3.1 µg/mL
[26]; [42]
  MIC: 3.1 µg/mL
[26]; [43]
  MIC: 3.1 µg/mL
[26]; [44]
  MIC: 3.1 µg/mL
[26]; [45]
  MIC: 1.6 µg/mL
[27]
  MIC: 25 µg/mL
[28]
  MIC: 6.3 to 12.5 µg/mL
[29]
  MIC: 3.1 to 6.3 µg/mL

## CN[C@@H]1[C@H](O)[C@H](NC)[C@H]2O[C@]3(O)[C@H](O[C@@H]2[C@H]1O)O[C@H](C)C[C@@]3(O)CNCc1ccccc1 [compound 1, 3′-(R)-3′-(benzylaminomethyl)dihydrospectinomycin Trihydrochloride]
[2]
  MIC: 50 µg/mL
[3]
  MIC: 3.1 µg/mL
[4]; [30]
  MIC: 25 µg/mL
[5]
  MIC: 50 µg/mL
[6]; Staphylococcus aureus (NRS70)
  MIC: 50 to 100 µg/mL
[7]; [31]
  MIC: 6.3 to 12.5 µg/mL
[7]; [32]
  MIC: 6.3 µg/mL
[8]
  MIC: 3.1 to 6.3 µg/mL
[9]
  MIC: > 200 µg/mL
[10]; [33]
  MIC: ≥ 200 µg/mL
[10]; [34]
  MIC: ≥ 200 µg/mL
[11]
  MIC: 100 µg/mL
[12]
  MIC: 25 µg/mL
[13]
  MIC: > 200 µg/mL
[14]
  MIC: > 200 µg/mL
[15]
  MIC: > 200 µg/mL
[16]
  MIC: 200 µg/mL
[17]
  MIC: 25 µg/mL
[18]
  zone of inhibition at 4 µg/disc: 16 mm
[19]
  zone of inhibition at 4 µg/disc: 36 to 40 mm
[20]
  zone of inhibition at 4 µg/disc: 16 to 22 mm
[21]
  zone of inhibition at 4 µg/disc: 16 mm
[22]
  MIC: 100 µg/mL
[23]
  MIC: 50 µg/mL
[24]
  MIC: 100 to 200 µg/mL
[25]
  MIC: 3.1 µg/mL
[26]; [35]
  MIC: 12.5 µg/mL
[26]; [36]
  MIC: 3.1 µg/mL
[26]; [37]
  MIC: 3.1 µg/mL
[26]; [38]
  MIC: 3.1 µg/mL
[26]; [39]
  MIC: 6.3 µg/mL
[26]; [40]
  MIC: 6.3 µg/mL
[26]; [41]
  MIC: 6.3 µg/mL
[26]; [42]
  MIC: 6.3 µg/mL
[26]; [43]
  MIC: 6.3 µg/mL
[26]; [44]
  MIC: 6.3 µg/mL
[26]; [45]
  MIC: 6.3 µg/mL
[27]
  MIC: 25 µg/mL
[28]
  MIC: 25 µg/mL
[29]
  MIC: 6.3 µg/mL

## CC[C@H]1OC(=O)[C@H](C)[C@@H](O[C@H]2C[C@@](C)(OC)[C@@H](O)[C@H](C)O2)[C@H](C)[C@@H](O[C@@H]2O[C@H](C)C[C@H](N(C)C)[C@H]2O)[C@](C)(O)C[C@@H](C)C(=O)[C@H](C)[C@@H](O)[C@]1(C)O [erythromycin]
[1]
  susceptibility of mutants resistant to 2: susceptible

## CCc1ccc(CNC[C@]2(O)C[C@@H](C)O[C@H]3O[C@@H]4[C@@H](O)[C@H](NC)[C@H](O)[C@H](NC)[C@H]4O[C@]32O)cc1 [compound 3, 3′-(R)-3′-[(4-ethyl)benzylaminomethyl)]dihydrospectinomycin Trihydrochloride]
[2]
  MIC: 12.5 to 25 µg/mL
[3]
  MIC: 3.1 to 6.3 µg/mL
[4]; Enterococcus faecalis, ATCC33186, read-out: MIC E.f.
  MIC: 12.5 to 25 µg/mL
[5]
  MIC: 50 µg/mL
[6]; Staphylococcus aureus
  MIC: 12.5 to 25 µg/mL
[7]; [31]
  MIC: 1.6 to 3.1 µg/mL
[7]; [32]
  MIC: 3.1 µg/mL
[8]
  MIC: 1.6 to 3.1 µg/mL
[9]
  MIC: 200 µg/mL
[10]; [33]
  MIC: > 200 µg/mL
[10]; [34]
  MIC: > 200 µg/mL
[11]
  MIC: 12.5 to 25 µg/mL
[12]
  MIC: 6.3 µg/mL
[13]
  MIC: 100 to 200 µg/mL
[14]
  MIC: 100 to 200 µg/mL
[15]
  MIC: 100 to 200 µg/mL
[16]
  MIC: 25 to 50 µg/mL
[17]
  MIC: 12.5 µg/mL
[18]
  zone of inhibition at 4 µg/disc: 15 to 17 mm
[19]
  zone of inhibition at 4 µg/disc: 28 to 40 mm
[20]
  zone of inhibition at 4 µg/disc: 18 mm
[21]
  zone of inhibition at 4 µg/disc: 16 mm
[22]
  MIC: 12.5 µg/mL
[23]
  MIC: 12.5 to 25 µg/mL
[24]
  MIC: > 200 µg/mL
[25]
  MIC: 1.6 to 3.1 µg/mL
[26]; [35]
  MIC: 6.3 µg/mL
[26]; [36]
  MIC: 1.6 µg/mL
[26]; [37]
  MIC: 3.1 µg/mL
[26]; [38]
  MIC: 1.6 µg/mL
[26]; [39]
  MIC: 6.3 µg/mL
[26]; [40]
  MIC: 3.1 µg/mL
[26]; [41]
  MIC: 3.1 µg/mL
[26]; [42]
  MIC: 6.3 µg/mL
[26]; [43]
  MIC: 6.3 µg/mL
[26]; [44]
  MIC: 6.3 µg/mL
[26]; [45]
  MIC: 3.1 µg/mL
[27]
  MIC: 25 µg/mL
[28]
  MIC: 6.3 µg/mL
[29]
  MIC: 3.1 to 6.3 µg/mL
